In data set [1] the target is T1, autotaxin (Homo sapiens, UniProt Q13822).
T1 construct: His; purchased R&D
Nature of the data set: NPP2 inhibitory assay (pNP-TMP substrate). The format is biochemical. As to conditions: mean of 2-3 measurements ± standard deviation.
From the text: Whether an aptamer inhibits the enzyme activity of autotaxin can be evaluated, for example, by the following test. As a substrate of autotaxin, phosphodiester bond-containing synthetic substrate p-nitrophenyl thymidine 5′-monophosphate (pNP-TMP) (SIGMA) is used. A phosphodiester bond is cleaved by hydrolysis, and p-nitrophenol is liberated. The p-nitrophenol develops a yellow color, and the color is detected. For the assay, a 96-well plate (96-Well EIAsurasshuRIA Polystyrene Plates, Costar) was used, and the amount of the reaction mixture was 200 μL. Nucleic acid was prepared in solution A (see below-mentioned Example 1) (100 μL), pNP-TMP (20 μL) adjusted to 10 mM in the reaction mixture A was added, and the mixture was stirred well and heated at 37° C. for 5 min. On the other hand, 6 ng of autotaxin (Recombinant Human, manufactured by R&D) diluted with solution A was prepared (80 μL), and heated at 37° C. for 5 min. After heating, they were mixed to start an enzyme reaction. The final autotaxin concentration in the reaction solution was 0.3 nM, and the final substrate concentration was 1 mM. A plate containing the reaction mixture was heated at 37° C. for 24 hr, placed in a microplate reader SpectraMax190 (manufactured by Molecular Devices) and the absorbance was determined at wavelength 405 nm. The absorbance when nucleic acid is not added as 100% (A0), an enzyme activity rate was determined from the absorbance (A) of each test substance and according to the following formula.
Enzyme activity rate=(A/A0)×100
(§1) The concentration (IC50) of an inhibitor necessary for inhibiting the enzyme activity by 50% was determined.
Whether these nucleic acids show an autotaxin inhibitory activity was evaluated by the following method. As a substrate of autotaxin, phosphodiester bond-containing synthetic substrate p-nitrophenyl thymidine 5′-monophosphate (pNP-TMP) (SIGMA) was selected (hereinafter to be referred to as NPP2 inhibitory assay). A phosphodiester bond is cleaved by hydrolysis, and p-nitrophenol is liberated. The p-nitrophenol develops a yellow color, and the color is detected. For the assay, a 96-well plate (96-Well EIA/RIA Polystyrene Plates, Costar) was used, and the amount of the reaction mixture was 200 μL. As the reaction mixture, solution A was used. Nucleic acids were prepared in solution A (100 μL), pNP-TMP (20 μL) adjusted to 10 mM in the reaction mixture A was added, and the mixture was stirred well and heated at 37° C. for 5 min. On the other hand, 6 ng of autotaxin diluted with solution A was prepared (80 μL), and heated at 37° C. for 5 min. After heating, they were mixed to start enzyme reaction. The final autotaxin concentration in the reaction solution was 0.3 nM, and the final substrate concentration was 1 mM. A plate containing the reaction mixture was heated at 37° C. for 24 hr, placed in a microplate reader SpectraMax190 (manufactured by Molecular Devices) and the absorbance was determined at wavelength 405 nm. The absorbance when nucleic acids are not added as 100% (A0), an […] was determined from the absorbance (A) of each test substance and according to the following formula.
as §1

Data set [2] concerns the target T1, autotaxin. Nature of the data set: Biacore surface plasmon resonance, autotaxin immobilized on CM4 chip, nucleic acid as analyte. In kind it is binding. As to conditions: autotaxin immobilized about 2700 RU, nucleic acid 0.3 μM as analyte; maximum RU relative to SEQ ID NO: 12. The procedure: In another measurement method, an autotaxin is first immobilized on a sensorchip. The immobilization amount is set to about 2700 RU. An aptamer solution as an analyte prepared to 0.30 μM is injected by 20 μL, and binding of the aptamer to the autotaxin is detected.
All nucleic acids of SEQ ID NOs: 11-16 were produced by chemical synthesis. Whether these nucleic acids bind to autotaxin was evaluated by the surface plasmon resonance method. For the measurement, Biacore T100 manufactured by GE Healthcare was used, and the measurement was performed by the method shown below. About 2700 RU autotaxin was immobilized on a sensorchip surface of CM4 chip by using an amino coupling kit. The flow rate was 20 μL/min, and nucleic acids (20 μL) prepared to 0.3 μM were injected as an analyte. As a running buffer, solution A was used.
Background: Surface plasmon resonance follows binding to a sensor surface in real time, without labels.

The target in data set [3] is T1, autotaxin. Nature of the data set: Biacore surface plasmon resonance, nucleic acid immobilized on SA chip, autotaxin as analyte. In kind it is binding. As to conditions: Example 1, running text. The procedure: Biacore T100 manufactured by GE Healthcare is used for the measurement of binding strength. In one measurement method, an aptamer is first immobilized on a sensorchip. The immobilization amount is set to about 1500 RU. An autotaxin solution as an analyte prepared to 0.020 μM is injected by 20 μL, and binding of the autotaxin to the aptamer is detected.
All nucleic acids shown in SEQ ID NOs: 4-10 were produced by chemical synthesis. The binding activity of these nucleic acids to autotaxin was evaluated by the surface plasmon resonance method. For the measurement, Biacore T100 manufactured by GE Healthcare was used. The SA chips with streptavidin immobilized thereon were used as the sensor chips. Binding thereto was about 1500 RU of 16 nucleotide Poly dT of which biotin was bound to the 5′-terminus. The nucleic acids used as a ligand were added with Poly A (16 nucleotides) to the 3′-terminus, and were immobilized on SA chips by T-A annealing. The nucleic acids (20 μL) were injected at a flow rate of 20 μL/min to immobilize about 1500 RU of the nucleic acids. An autotaxin for analyte was prepared at 0.02 μM, and 20 μL thereof was injected. As a running buffer, solution A (mixed solution of 145 mM sodium chloride, 5.4 mM potassium chloride, 1.8 mM calcium chloride, 0.8 mM magnesium chloride, 20 mM Tris (pH 7.6), 0.05% Tween20) was used.

For data set [4], the target named is T1, autotaxin. Nature of the data set: LysoPLD inhibitory assay (14:0 LPC substrate, choline detection). In kind it is biochemical. An excerpt: As a substrate of autotaxin, 14:0 lysophosphatidylcholine (LPC, Avanti) was selected (hereinafter to be referred to as LysoPLD inhibitory assay). LPC is hydrolyzed by the lysophospholipase D activity of autotaxin and decomposed into lysophosphatidic acid (LPA) and choline. Choline is oxidized by choline oxidase to afford hydrogen peroxide. In the presence of the hydrogen peroxide and peroxidase, N-ethyl-N-(2-hydroxy-3-sulfopropyl)-3-methoxyaniline (TOOS) and 4-aminoantipyrine (4-AA) undergo oxidation condensation reaction, which develops a purple color to be detected.
For the reaction, a 96-well plate (polypropylene 96-well, manufactured by BMbio) was used, and the amount of the reaction mixture was 60 μL. As a reaction solution, solution A was used. […] The lysophospholipase D activity of autotaxin was evaluated as follows. […] The absorbance was measured at a wavelength of 548 nm, and used as a blank value. Then, solution C (50 μL) was added, and changes in the absorbance at wavelength 548 nm were measured over time. Solution C contained 100 mM tris (pH 8.0), 10 U/mL choline oxidase (manufactured by TOYOBO), 1 mM 4-AA (manufactured by DOJINDO), and 0.01% Triton-X. The absorbance of solution blank at the time point when solution B was added, which had been measured earlier, was subtracted from the absorbance at 15 min after addition of solution C, whereby true absorbance value was obtained. […]

The mark [5] stands for this setting: Table 4, >1.0 = no inhibitory activity up to 1.0 μM.

The values that follow come from patent US20170137818A1, “APTAMER INHIBITING BIOLOGICAL ACTIVITY OF AUTOTAXIN BY BINDING WITH AUTOTAXIN, AND USE THEREOF” (RIBOMIC INC., priority 2014, published 2017).

Bounds are passed on as bounds.

A word on the IC50: it is the midpoint of a concentration-inhibition curve. A high value points to weaker potency in that assay. In the data set with autotaxin [1] (setting [5]), “27 (TACGCTCGGAACCGAGGCAATTGGTCAGCGTG; DNA, backbone and methylation of C not given here) [compound 27]” yielded an IC50 of 24 ± 10 nM.
“13 (TGGACGGAACCAGAATACTTTTGGTCTCCA; DNA, backbone and methylation of C not given here) [compound 13]” gave an IC50 in the data set with autotaxin [1] (Table 2) of 110 ± 7 nM. Also, in the data set with autotaxin [2], the “Binding activity by Biacore” value is listed as “+ (not less than that)”.
In turn, “15 (CCTGGACGGAACCAATACTTGGTCTCCAGG; DNA, backbone and methylation of C not given here) [compound 15]” returned an IC50 with autotaxin [1] (Table 2) of 990 ± 11 nM. Also, the “Binding activity by Biacore” value with autotaxin [2] is on record as “− (not more than 10% of the aptamer shown in SEQ ID NO: 12 that showed the highest binding amount)”.
In the data set with autotaxin [1] (Table 2), “14 (GGGACGGAACCAGAATACTTTTGGTCTCCC; DNA, backbone and methylation of C not given here) [compound 14]” had an IC50 of 42 ± 5 nM. In addition, in the data set with autotaxin [2], the “Binding activity by Biacore” value was “+ (not less than that)”.
“29 (GCTGGCCGGAACCGTGCATATGGTCGCCAGC; DNA, backbone and methylation of C not given here) [compound 29]” gave an IC50 with autotaxin [1] (setting [5]) of 11 ± 4 nM.
Regarding “28 (ACAGGCGCTGGCCGGAACCGTGCATATGGTC; DNA, backbone and methylation of C not given here) [compound 28]”, in the data set with autotaxin [1] (setting [5]), the IC50 was above 1000 nM.
“12 (CCTGGACGGAACCAGAATACTTTTGGTCTCCAGG; chemistry not fully specified) [compound 12]”: the “Binding activity by Biacore” value with autotaxin [2] is recorded as “+ (not less than that)”.
In the data set with autotaxin [1] (setting [5]), “26 (CGCTGGGGTACGCTCGGAACCGAGGCAATTGGTCAGCG; DNA, backbone and methylation of C not given here) [compound 26]” gave an IC50 of 440 ± 41 nM.
In the case of “GTGGTCTAGCTGTACTCNNNNNNNNNNNNNNNNNNNNNNNNNNNNNNNNNNNNNNNNCCACAGTCAACGAGCTA [SEQ ID NO: 1(40N), reference compound]”, at autotaxin [3], the “binding to autotaxin (in words)” value is reported as “not bind”.
As to “11 (GTACTCATGGACGGAACCAGAATACTTTTGGTCTCCATTGAGTAC; chemistry not fully specified) [compound 11]”, the “Binding activity by Biacore” value with autotaxin [2] is recorded as “+ (not less than that)”.
Regarding `CCCCCCCCCCCCCC(=O)Nc1ccc(CP(=O)(O)O)cc1` [S32826], the “LysoPLD inhibitory activity (in words)” value at autotaxin [4] was “an inhibitory activity was not found”. Besides, the IC50 against autotaxin [4] (autotaxin 2.1 nM, 14:0 LPC 2 mM, 37° C. 6 hr, mean of 2-3 measurements±standard deviation, >1000 = no inhibitory activity up to 1000 nM) was above 1000 nM.
Regarding “16 (CTGGACGGAACCAGAATACTTTTGGTCTCCAG; DNA, backbone and methylation of C not given here) [compound 16]”, the IC50 in the data set with autotaxin [1] (Table 2) was 18 ± 1 nM. The “Binding activity by Biacore” value in the data set with autotaxin [2] was “+ (not less than that)”.
